Read-outs that look alike come from different tables or passages of the source.
Key:
[1] = cited from earlier work
CYP1A2 [2] = test: CYP1A2 enzyme induction assay in cryopreserved HepaRG cells (phenacetin probe, LC/MS); assay type: in vitro ADME, human; settings: for Assigned classification CYP1A2: HepaRG
CYP2B6 [3] = test: CYP2B6 enzyme induction assay in cryopreserved HepaRG cells (bupropion probe, LC/MS); assay type: in vitro ADME, human; settings: HepaRG
CYP3A4 [4] = test: CYP3A4 enzyme induction assay in cryopreserved HepaRG cells (midazolam probe, LC/MS); assay type: in vitro ADME, human; settings: for Assigned classification CYP3A4: HepaRG
CYP1A2 [5] = test: CYP1A2 enzyme induction assay in cryopreserved primary human hepatocytes (PHH); assay type: in vitro ADME; settings: for Assigned classification CYP1A2: PHH;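 on Assigned classification CYP1A2: code 1 means positive inducer and 0 means non-inducer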
CYP2B6 [6] = test: CYP2B6 enzyme induction assay in cryopreserved primary human hepatocytes (PHH); assay type: in vitro ADME; settings: PHH;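 further: code 1 means positive inducer and 0 means non-inducer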
CYP1A2 [7] = settings: CYP1A2, human; ref Table 1; cited from earlier work
CYP3A4 [8] = settings: CYP3A4, human in vivo reference classification (Table 11); cited from earlier work
CYP3A4 [9] = test: CYP3A4 enzyme induction assay in cryopreserved primary human hepatocytes (PHH); settings: for Assigned classification CYP3A4: PHH
[10] = human in vivo plasma concentration, normal dose
[11] = human in vivo, normal dose (Table 10)

Structure (SMILES): C[C@@H]1CC[C@H]2[C@@H](C)C(=O)O[C@@H]3O[C@@]4(C)CC[C@@H]1[C@]32OO4 [Artemisinin]
- Cmax [1, 10]: 1000 to 2000 nM
- Cmax [1, 11]: 1000 to 2000 nM

Structure (SMILES): COCCc1ccc(OCC(O)CNC(C)C)cc1 (stereo not drawn) [Metoprolol]
- Prediction in vivo inducer (CYP1A2 [2]; CYP1A2, HepaRG cells, Cmax/F2 >0.5 criterion): No
- Induction in vitro (CYP1A2 [2]; CYP1A2, HepaRG cells, positive in one batch in each of the three laboratories): No
- Assigned classification CYP1A2 (CYP1A2 [2]; Lab 1, batch 20): 0
- Assigned classification CYP1A2 (CYP1A2 [2]; Lab 1, batch 35): 0
- Assigned classification CYP1A2 (CYP1A2 [2]; Lab 1, batch 36): 0
- Assigned classification CYP1A2 (CYP1A2 [2]; Lab 2, batch 20): 0
- Assigned classification CYP1A2 (CYP1A2 [2]; Lab 2, batch 35): 1
- Assigned classification CYP1A2 (CYP1A2 [2]; Lab 2, batch 36): 0
- Assigned classification CYP1A2 (CYP1A2 [2]; Lab 3, batch 20): 0
- Assigned classification CYP1A2 (CYP1A2 [2]; Lab 3, batch 35): 0
- Assigned classification CYP1A2 (CYP1A2 [2]; Lab 3, batch 36): 0
- Assigned classification CYP2B6 (CYP2B6 [3]; Lab 1, batch 20): 0
- Assigned classification CYP2B6 (CYP2B6 [3]; Lab 1, batch 35): 0
- Assigned classification CYP2B6 (CYP2B6 [3]; Lab 1, batch 36): 0
- Assigned classification CYP2B6 (CYP2B6 [3]; Lab 2, batch 20): 0
- Assigned classification CYP2B6 (CYP2B6 [3]; Lab 2, batch 35): 0
- Assigned classification CYP2B6 (CYP2B6 [3]; Lab 2, batch 36): 0
- Assigned classification CYP2B6 (CYP2B6 [3]; Lab 3, batch 20): 0
- Assigned classification CYP2B6 (CYP2B6 [3]; Lab 3, batch 35): 0
- Assigned classification CYP2B6 (CYP2B6 [3]; Lab 3, batch 36): 0
- Induction in vitro (CYP3A4 [4]; CYP3A4, HepaRG cells): No
- Prediction in vivo inducer (CYP3A4 [4]; CYP3A4, HepaRG cells): No
- Assigned classification CYP3A4 (CYP3A4 [4]; Lab 1, batch 20): 0
- Assigned classification CYP3A4 (CYP3A4 [4]; Lab 1, batch 35): 0
- Assigned classification CYP3A4 (CYP3A4 [4]; Lab 1, batch 36): 0
- Assigned classification CYP3A4 (CYP3A4 [4]; Lab 2, batch 20): 0
- Assigned classification CYP3A4 (CYP3A4 [4]; Lab 2, batch 35): 0
- Assigned classification CYP3A4 (CYP3A4 [4]; Lab 2, batch 36): 0
- Assigned classification CYP3A4 (CYP3A4 [4]; Lab 3, batch 20): 0
- Assigned classification CYP3A4 (CYP3A4 [4]; Lab 3, batch 35): 0
- Assigned classification CYP3A4 (CYP3A4 [4]; Lab 3, batch 36): 0
- Prediction in vivo inducer (CYP1A2 [5]; CYP1A2, PHH, Cmax/F2 >0.5 criterion): No
- Induction in vitro (CYP1A2 [5]; CYP1A2, PHH, positive in one donor in each of the three laboratories): No
- Assigned classification CYP1A2 (CYP1A2 [5]; Lab 1, batch 0 6 A): 0
- Assigned classification CYP1A2 (CYP1A2 [5]; Lab 1, batch 4 0 8): 1
- Assigned classification CYP1A2 (CYP1A2 [5]; Lab 1, batch 8 0 8): 1
- Assigned classification CYP1A2 (CYP1A2 [5]; Lab 2, batch 0 6 A): 0
- Assigned classification CYP1A2 (CYP1A2 [5]; Lab 2, batch 4 0 8): 0
- Assigned classification CYP1A2 (CYP1A2 [5]; Lab 2, batch 8 0 8): 0
- Assigned classification CYP1A2 (CYP1A2 [5]; Lab 3, batch 0 6 A): 1
- Assigned classification CYP1A2 (CYP1A2 [5]; Lab 3, batch 4 0 8): 0
- Assigned classification CYP1A2 (CYP1A2 [5]; Lab 3, batch 8 0 8): 0
- Assigned classification CYP2B6 (CYP2B6 [6]; Lab 1, batch 0 6 A): 0
- Assigned classification CYP2B6 (CYP2B6 [6]; Lab 1, batch 4 0 8): 0
- Assigned classification CYP2B6 (CYP2B6 [6]; Lab 1, batch 8 0 8): 0
- Assigned classification CYP2B6 (CYP2B6 [6]; Lab 2, batch 0 6 A): 0
- Assigned classification CYP2B6 (CYP2B6 [6]; Lab 2, batch 4 0 8): 0
- Assigned classification CYP2B6 (CYP2B6 [6]; Lab 2, batch 8 0 8): 0
- Assigned classification CYP2B6 (CYP2B6 [6]; Lab 3, batch 0 6 A): 1
- Assigned classification CYP2B6 (CYP2B6 [6]; Lab 3, batch 4 0 8): 0
- Assigned classification CYP2B6 (CYP2B6 [6]; Lab 3, batch 8 0 8): 0
- Induction in vivo (CYP1A2 [7]): No
- Cmax [1, 10]: 140 to 380 nM
- Cmax [1, 11]: 140 to 380 nM
- Induction in vivo (CYP3A4 [8]): No
- Induction in vitro (CYP3A4 [9]; CYP3A4, PHH): No
- Prediction in vivo inducer (CYP3A4 [9]; CYP3A4, PHH): No
- Prediction in vivo inducer (CYP3A4 [9]; CYP3A4, PHH, Cmax/F2 >0.5 criterion): predicted to be a non-inducer in vivo
- Assigned classification CYP3A4 (CYP3A4 [9]; Lab 1, batch 0 6 A): 0
- Assigned classification CYP3A4 (CYP3A4 [9]; Lab 1, batch 4 0 8): 0
- Assigned classification CYP3A4 (CYP3A4 [9]; Lab 1, batch 8 0 8): 0
- Assigned classification CYP3A4 (CYP3A4 [9]; Lab 2, batch 0 6 A): 1
- Assigned classification CYP3A4 (CYP3A4 [9]; Lab 2, batch 4 0 8): 0
- Assigned classification CYP3A4 (CYP3A4 [9]; Lab 2, batch 8 0 8): 0
- Assigned classification CYP3A4 (CYP3A4 [9]; Lab 3, batch 0 6 A): 1
- Assigned classification CYP3A4 (CYP3A4 [9]; Lab 3, batch 4 0 8): 0
- Assigned classification CYP3A4 (CYP3A4 [9]; Lab 3, batch 8 0 8): 0
